From patent EP4417602A1, “SUBSTITUTED PYRAZOLE CARBOXAMIDES, SALTS THEREOF AND THEIR USE AS HERBICIDALLY ACTIVE SUBSTANCES” (Bayer AG, priority 2023, dated 2024)

How the values were obtained:
MATIN [1] = test: A. Herbicidal pre-emergence action on harmful plants (Tables A); assay type: in vivo, Matricaria inodora; conditions: visual grading after ca. 3 weeks vs untreated controls, 100% = plants have died off, 0% = as control plants
Outline: (§1)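 Values are visual percent damage relative to untreated controls, scored ca. 3 weeks after the compound was sprayed on the covering soil of sown pots (sandy loam) at rates up to 1280 g/ha, formulated as WP or EC with 0.5% additive.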

STEME = test: as above; assay type: in vivo, Stellaria media; conditions: visual grading after ca. 3 weeks vs untreated controls, 100% = plants have died off, 0% = as control plants
Outline: as §1

ECHCG [2] = test: as above; assay type: in vivo, Echinochloa crus-galli; conditions: visual grading after ca. 3 weeks vs untreated controls, 100% = plants have died off, 0% = as control plants
Outline: as §1

SETVI = test: as above; assay type: in vivo, Setaria viridis; conditions: visual grading after ca. 3 weeks vs untreated controls, 100% = plants have died off, 0% = as control plants
Outline: as §1

VERPE [3] = test: as above; assay type: in vivo, Veronica persica; conditions: application rate 1280 g/ha; Table A11
Description: Seeds of mono- and dicotyledonous weed plants were sown in plastic pots (double sowings with one species of mono- and one species of dicotyledonous weed plants per pot), in sandy loam, and covered with soil. The compounds according to the invention, formulated in the form of wettable powders (WP) or as emulsifiable concentrates (EC), were applied to the surface of the covering soil as aqueous suspension or emulsion, with the addition of 0.5% of an additive, at an application rate of 6001 of water per hectare (converted). Following treatment, the pots were placed in a greenhouse and kept under optimum growth conditions for the test plants. The visual grading of the damage to the test plants was carried out after ca. 3 weeks in comparison to untreated controls (herbicidal effect in percent (%): 100% effect = plants have died off, 0% effect = as control plants). Tables A1 to A12, below, show the effects of selected compounds of the general formula (I) according to table 1 on various harmful plants and an application rate corresponding to 1280 g/ha or below obtained by the experimental procedure mentioned above. Table A1: pre-emergence activity at 1280g/ha against ABUTH in %

VERPE [4] = test: B. Herbicidal post-emergence action on harmful plants (Tables B); assay type: in vivo, Veronica persica; conditions: application rate 1280 g/ha; Table B11a
Outline: (§2)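 Greenhouse weeds grown in sandy loam were sprayed post-emergence at the one-leaf stage, 2-3 weeks after sowing. Compounds were applied as WP or EC in water with 0.5% additive at 600 L/ha, at 1280 g/ha or below. Visual damage was rated after about 3 weeks versus untreated plants (0-100%).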

POAAN [5] = test: as above; assay type: in vivo, Poa annua
Outline: as §2

AMARE = test: A. Herbicidal pre-emergence action on harmful plants (Tables A); assay type: in vivo, Amaranthus retroflexus; conditions: application rate 1280 g/ha; visual grading after ca. 3 weeks vs untreated controls; 100% = plants have died off, 0% = as control plants
Outline: as §1

ALOMY = test: as above; assay type: in vivo, Alopecurus myosuroides
Outline: as §1

DIGSA [6] = test: as above; assay type: in vivo, Digitaria sanguinalis
Outline: as §1

ECHCG [7] = test: B. Herbicidal post-emergence action on harmful plants (Tables B); assay type: in vivo, Echinochloa crus-galli; conditions: application rate 1280 g/ha; Table B2a
Outline: as §2

MATIN [8] = test: as above; assay type: in vivo, Matricaria inodora
Method: (§3) Seeds of mono- and dicotyledonous weed plants were placed in plastic pots in sandy loam soil (doubly sown with in each case one species of mono- or dicotyledonous weed plants per pot), covered with soil and cultivated in a greenhouse under controlled growth conditions. 2 to 3 weeks after sowing, the test plants were treated at the one-leaf stage. The compounds of the invention, formulated in the form of wettable powders (WP) or as emulsion concentrates (EC), were applied onto the green parts of the plants as aqueous suspension or emulsion with addition of 0.5% additive at a water application rate of 600 liters per hectare (converted). After the test plants had been kept in the greenhouse under optimum growth conditions for about 3 weeks, the activity of the preparations was rated visually in comparison to untreated controls. For example, 100% activity = the plants have died, 0% activity = like control plants. Tables B1 to B12, below, show the effects of selected compounds of the general formula (I) according to table 1 on various harmful plants and an application rate corresponding to 1280 g/ha or below obtained by the experimental procedure mentioned above. Table B1a: post-emergence activity at 1280g/ha against ABUTH in %

LOLRI = test: A. Herbicidal pre-emergence action on harmful plants (Tables A); assay type: in vivo, Lolium rigidum; conditions: visual grading after ca. 3 weeks vs untreated controls, 100% = plants have died off, 0% = as control plants
Outline: as §1

POAAN [9] = test: as above; assay type: in vivo, Poa annua
Outline: as §1

ABUTH = test: B. Herbicidal post-emergence action on harmful plants (Tables B); assay type: in vivo, Abutilon theophrasti; conditions: application rate 1280 g/ha; Table B1a
Method: as §3

DIGSA [10] = test: as above; assay type: in vivo, Digitaria sanguinalis; conditions: application rate 1280 g/ha; Table B12a
Method: as §3

Question: Which results are given for `COCc1nn(C)cc1C(=O)N1CCCC1Cc1cccc(F)c1F` (racemic) [Example I-077]?
Answer: pre-emergence activity against MATIN (MATIN [1]; application rate 320 g/ha): 90%; pre-emergence activity against MATIN (MATIN [1]; application rate 1280 g/ha): 90%; pre-emergence activity against STEME (STEME; application rate 80 g/ha): 90%; pre-emergence activity against STEME (STEME; application rate 320 g/ha): 90%; pre-emergence activity against STEME (STEME; application rate 1280 g/ha): 90%; pre-emergence activity against ECHCG (ECHCG [2]; application rate 80 g/ha): 90%; pre-emergence activity against ECHCG (ECHCG [2]; application rate 320 g/ha): 90%; pre-emergence activity against ECHCG (ECHCG [2]; application rate 1280 g/ha): 100%; pre-emergence activity against SETVI (SETVI; application rate 320 g/ha): 90%; pre-emergence activity against SETVI (SETVI; application rate 1280 g/ha): 90%; pre-emergence activity against VERPE (VERPE [3]): 90%; post-emergence activity against VERPE (VERPE [4]): 90%; post-emergence activity against POAAN (POAAN [5]; application rate 320 g/ha, Table B7b): 90%; post-emergence activity against POAAN (POAAN [5]; application rate 1280 g/ha, Table B7a): 90%; pre-emergence activity against AMARE (AMARE): 90%; pre-emergence activity against ALOMY (ALOMY; application rate 320 g/ha, Table A9b): 90%; pre-emergence activity against ALOMY (ALOMY; application rate 1280 g/ha, Table A9a): 90%; pre-emergence activity against DIGSA (DIGSA [6]; application rate 320 g/ha, Table A12b): 100%; pre-emergence activity against DIGSA (DIGSA [6]; application rate 1280 g/ha, Table A12a): 100%; post-emergence activity against ECHCG (ECHCG [7]): 90%; post-emergence activity against MATIN (MATIN [8]; application rate 320 g/ha, Table B4b): 90%; post-emergence activity against MATIN (MATIN [8]; application rate 1280 g/ha, Table B4a): 90%; pre-emergence activity against LOLRI (LOLRI; application rate 320 g/ha): 90%; pre-emergence activity against LOLRI (LOLRI; application rate 1280 g/ha): 100%; pre-emergence activity against POAAN (POAAN [9]; application rate 80 g/ha, Table A7c): 100%; pre-emergence activity against POAAN (POAAN [9]; application rate 320 g/ha, Table A7b): 100%; pre-emergence activity against POAAN (POAAN [9]; application rate 1280 g/ha, visual grading after ca. 3 weeks vs untreated controls, 100% = plants have died off, 0% = as control plants): 100%; post-emergence activity against ABUTH (ABUTH): 90%; post-emergence activity against DIGSA (DIGSA [10]): 90%
